Experimental data: ChEMBL document CHEMBL2401630, “A thienopyrimidine derivative induces growth inhibition and apoptosis in human cancer cell lines via inhibiting Aurora B kinase activity” (Eur J Med Chem, 2013)
Calls of active or inactive are those of the source. No cut-off for these calls is given here.

Assays:
[1] = target: T1, Aurora kinase B (Homo sapiens, UniProt Q96GD4); assay: Inhibition of Aurora B kinase in human HepG2 cells assessed as inhibition of Histone H3 phosphorylation after 48 hrs by Western blotting analysis; type: cell-based
[2] = target: Glycogen synthase kinase-3 beta (Homo sapiens) (UniProt P49841); assay: Inhibition of GSK3 beta (unknown origin) at 10 uM by Z'-LYTE kinase assay
[3] = target: Epidermal growth factor receptor (Homo sapiens) (UniProt P00533); assay: Inhibition of EGFR (unknown origin) at 10 uM by Z'-LYTE kinase assay
[4] = target: T1, Aurora kinase B; assay: Inhibition of Aurora B kinase phosphorylation in human SW620 cells after 48 hrs by Western blotting analysis; type: cell-based; conditions: SW-620
[5] = target: T1, Aurora kinase B; assay: Inhibition of Aurora B kinase phosphorylation in human HepG2 cells after 48 hrs by Western blotting analysis; type: cell-based
[6] = target: Tyrosine-protein kinase receptor UFO (Homo sapiens) (UniProt P30530); assay: Inhibition of AXL (unknown origin) at 10 uM by Z'-LYTE kinase assay
[7] = test system: HeLa; assay: Cytotoxicity against human HeLa cells after 72 hrs by CCK-8 assay; type: functional, cell-based
[8] = test system: SW-620; assay: Cytotoxicity against human SW620 cells at 20 uM incubated for 96 hrs measured after 10 days by colony formation assay relative to control; type: functional
[9] = Cytotoxicity against human PANC cells after 72 hrs by CCK-8 assay; type: functional, cell-based
[10] = test system: A-375; assay: Cytotoxicity against human A375 cells after 72 hrs by CCK-8 assay; type: functional, cell-based; conditions: A-375, 72 h
[11] = test system: MCF7; assay: Cytotoxicity against human MCF7 cells after 72 hrs by CCK-8 assay; type: functional, cell-based; conditions: MCF7, 72 h
[12] = target: T1, Aurora kinase B; assay: Inhibition of Aurora B kinase in human HeLa cells assessed as inhibition of Histone H3 phosphorylation after 48 hrs by immuno-fluorescence analysis relative to control; type: cell-based
[13] = target: T1, Aurora kinase B; assay: Inhibition of Aurora B kinase in human HeLa cells assessed as inhibition of Histone H3 phosphorylation after 48 hrs by Western blotting analysis; type: cell-based
[14] = test system: SW-620; assay: Induction of apoptosis in human SW620 cells assessed as late apoptotic cells at 20 uM after 48 hrs by Annexin-V staining-based flow cytometry (reference value: 4.52 %); type: functional
[15] = Cytotoxicity against human Hep3B cells after 72 hrs by CCK-8 assay; type: functional, cell-based, Hep 3B2
[16] = species on record: Homo sapiens; assay: Inhibition of PKA (unknown origin) at 10 uM by Z'-LYTE kinase assay
[17] = target: RAC-alpha serine/threonine-protein kinase (Homo sapiens) (UniProt P31749); assay: Inhibition of AKT1 (unknown origin) at 10 uM by Z'-LYTE kinase assay
[18] = target: High affinity nerve growth factor receptor (Homo sapiens) (UniProt P04629); assay: Inhibition of TRKA (unknown origin) at 10 uM by Z'-LYTE kinase assay
[19] = target: Proto-oncogene tyrosine-protein kinase receptor Ret (Homo sapiens) (UniProt P07949); assay: Inhibition of RET (unknown origin) at 10 uM by Z'-LYTE kinase assay
[20] = test system: A549; assay: Cytotoxicity against human A549 cells after 72 hrs by CCK-8 assay; type: functional, cell-based; conditions: A549, 72 h
[21] = test system: SW-620; assay: Growth inhibition in human SW620 cells at 5 to 10 uM after 96 hrs by CCK-8 assay relative to control; type: functional, cell-based
[22] = target: Aurora kinase A (Homo sapiens) (UniProt O14965); assay: Inhibition of Aurora A kinase (unknown origin) at 10 uM by Z'-LYTE kinase assay
[23] = test system: SW-620; assay: Growth inhibition in human SW620 cells at 5 to 10 uM incubated for 96 hrs followed by compound washout measured after 48 hrs by CCK-8 assay; type: functional, cell-based
[24] = target: T1, Aurora kinase B; assay: Inhibition of Aurora B kinase (unknown origin) at 10 uM by Z'-LYTE kinase assay
[25] = test system: SW-620; assay: Induction of apoptosis in human SW620 cells assessed as late apoptotic cells at 10 uM after 48 hrs by Annexin-V staining-based flow cytometry (reference value: 4.52 %); type: functional
[26] = test system: SW-620; assay: Cytotoxicity against human SW620 cells after 72 hrs by CCK-8 assay; type: functional, cell-based; conditions: SW-620, 72 h
[27] = test system: MDA-MB-231; assay: Cytotoxicity against human MDA-MB-231 cells after 72 hrs by CCK-8 assay; type: functional, cell-based; conditions: MDA-MB-231, 72 h
[28] = test system: HCT-116; assay: Cytotoxicity against human HCT116 cells after 72 hrs by CCK-8 assay; type: functional, cell-based; conditions: HCT-116, 72 h
[29] = test system: SW-620; assay: Induction of apoptosis in human SW620 cells assessed as late apoptotic cells at 5 uM after 48 hrs by Annexin-V staining-based flow cytometry (reference value: 4.52 %); type: functional
[30] = test system: SW-620; assay: Induction of apoptosis in human SW620 cells assessed as late apoptotic cells after 48 hrs by Annexin-V staining-based flow cytometry; type: functional, cell-based
[31] = test system: SK-OV-3; assay: Cytotoxicity against human SKOV3 cells after 72 hrs by CCK-8 assay; type: functional, cell-based; conditions: SK-OV-3, 72 h
[32] = target: RAF proto-oncogene serine/threonine-protein kinase (Homo sapiens) (UniProt P04049); assay: Inhibition of c-Raf (unknown origin) at 10 uM by Z'-LYTE kinase assay
[33] = test system: HepG2; assay: Cytotoxicity against human HepG2 cells after 72 hrs by CCK-8 assay; type: functional, cell-based; conditions: HepG2, 72 h
[34] = target: Vascular endothelial growth factor receptor 2 (Homo sapiens) (UniProt P35968); assay: Inhibition of VEGFR2 (unknown origin) at 10 uM by Z'-LYTE kinase assay
[35] = target: CDK2/Cyclin A2 (Homo sapiens) (UniProt P24941+P20248); assay: Inhibition of CDK2/CycA (unknown origin) at 10 uM by Z'-LYTE kinase assay; type: protein-complex assay
[36] = target: 5'-AMP-activated protein kinase catalytic subunit alpha-2 (Homo sapiens) (UniProt P54646); assay: Inhibition of AMPK (unknown origin) at 10 uM by Z'-LYTE kinase assay
[37] = test system: HGC-27; assay: Cytotoxicity against human HGC27 cells after 72 hrs by CCK-8 assay; type: functional, cell-based; conditions: HGC-27, 72 h
[38] = test system: SW-620; assay: Growth inhibition in human SW620 cells assessed as cell death at 10 uM incubated for 96 hrs measured after 8 days by CCK-8 assay; type: functional, cell-based
[39] = target: T1, Aurora kinase B; assay: Inhibition of Aurora B kinase phosphorylation in human HeLa cells after 48 hrs by Western blotting analysis; type: cell-based
[40] = target: Serine/threonine-protein kinase PLK1 (Homo sapiens) (UniProt P53350); assay: Inhibition of PLK1 (unknown origin) at 10 uM by Z'-LYTE kinase assay
[41] = target: T1, Aurora kinase B; assay: Inhibition of Aurora B kinase in human SW620 cells assessed as inhibition of Histone H3 phosphorylation after 48 hrs by Western blotting analysis; type: cell-based; conditions: SW-620
[42] = test system: SW-620; assay: Cytotoxicity against human SW620 cells at 10 uM incubated for 96 hrs measured after 10 days by colony formation assay relative to control; type: functional
[43] = test system: PC-3; assay: Cytotoxicity against human PC3 cells after 72 hrs by CCK-8 assay; type: functional, cell-based; conditions: PC-3, 72 h
[44] = test system: CNE; assay: Cytotoxicity against human CNE cells after 72 hrs by CCK-8 assay; type: functional, cell-based
[45] = target: T1, Aurora kinase B; assay: Inhibition of recombinant Aurora B kinase (unknown origin) expressed in Escherichia coli
[46] = target: T1, Aurora kinase B; assay: Competitive inhibition of recombinant Aurora B kinase (unknown origin) expressed in Escherichia coli by Z'-LYTE kinase assay in presence of ATP
[47] = target: Platelet-derived growth factor receptor beta (Homo sapiens) (UniProt P09619); assay: Inhibition of PDGFR beta (unknown origin) at 10 uM by Z'-LYTE kinase assay
[48] = test system: SK-HEP1; assay: Cytotoxicity against human SKHEP1 cells after 72 hrs by CCK-8 assay; type: functional, cell-based; conditions: SK-HEP1, 72 h

T1 sequence (Q96GD4 whole entry): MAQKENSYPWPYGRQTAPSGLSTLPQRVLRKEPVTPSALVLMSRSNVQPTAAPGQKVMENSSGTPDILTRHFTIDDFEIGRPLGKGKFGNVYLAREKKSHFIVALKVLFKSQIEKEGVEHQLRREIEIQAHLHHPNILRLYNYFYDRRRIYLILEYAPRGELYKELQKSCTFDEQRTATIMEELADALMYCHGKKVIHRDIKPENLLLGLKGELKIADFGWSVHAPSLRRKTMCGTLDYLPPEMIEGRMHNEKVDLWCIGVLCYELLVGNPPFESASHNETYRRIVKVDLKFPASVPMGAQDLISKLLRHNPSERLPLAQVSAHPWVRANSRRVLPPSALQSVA
Sequence of 5'-AMP-activated protein kinase catalytic subunit alpha-2 (Homo sapiens) (P54646 whole entry, looked up): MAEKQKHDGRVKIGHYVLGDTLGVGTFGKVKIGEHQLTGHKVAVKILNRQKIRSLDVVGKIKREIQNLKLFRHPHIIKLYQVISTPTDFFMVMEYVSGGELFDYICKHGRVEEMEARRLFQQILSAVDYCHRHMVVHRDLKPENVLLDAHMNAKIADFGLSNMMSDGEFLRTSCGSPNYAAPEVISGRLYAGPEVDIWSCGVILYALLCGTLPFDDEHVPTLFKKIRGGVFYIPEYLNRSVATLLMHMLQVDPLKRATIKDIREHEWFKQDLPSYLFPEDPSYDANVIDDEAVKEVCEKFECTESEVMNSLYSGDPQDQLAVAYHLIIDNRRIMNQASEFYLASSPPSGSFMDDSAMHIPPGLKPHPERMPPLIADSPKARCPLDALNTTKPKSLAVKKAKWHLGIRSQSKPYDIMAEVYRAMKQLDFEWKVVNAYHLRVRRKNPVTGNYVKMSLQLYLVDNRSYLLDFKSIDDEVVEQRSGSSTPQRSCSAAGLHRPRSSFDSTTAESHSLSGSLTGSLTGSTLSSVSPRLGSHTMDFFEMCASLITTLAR
Sequence of Aurora kinase A (Homo sapiens) (O14965 whole entry): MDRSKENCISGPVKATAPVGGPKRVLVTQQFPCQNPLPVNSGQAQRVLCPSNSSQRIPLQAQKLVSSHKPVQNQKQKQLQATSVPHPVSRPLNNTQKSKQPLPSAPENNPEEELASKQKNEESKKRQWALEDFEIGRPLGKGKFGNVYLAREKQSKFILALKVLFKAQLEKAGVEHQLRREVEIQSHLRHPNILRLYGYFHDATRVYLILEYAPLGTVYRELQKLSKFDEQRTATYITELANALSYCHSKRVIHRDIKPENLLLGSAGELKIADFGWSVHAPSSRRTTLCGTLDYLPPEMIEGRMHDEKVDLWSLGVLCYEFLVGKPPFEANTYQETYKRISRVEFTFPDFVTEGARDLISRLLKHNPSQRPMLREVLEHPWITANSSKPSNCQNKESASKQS
Sequence of RAF proto-oncogene serine/threonine-protein kinase (Homo sapiens) (P04049 whole entry): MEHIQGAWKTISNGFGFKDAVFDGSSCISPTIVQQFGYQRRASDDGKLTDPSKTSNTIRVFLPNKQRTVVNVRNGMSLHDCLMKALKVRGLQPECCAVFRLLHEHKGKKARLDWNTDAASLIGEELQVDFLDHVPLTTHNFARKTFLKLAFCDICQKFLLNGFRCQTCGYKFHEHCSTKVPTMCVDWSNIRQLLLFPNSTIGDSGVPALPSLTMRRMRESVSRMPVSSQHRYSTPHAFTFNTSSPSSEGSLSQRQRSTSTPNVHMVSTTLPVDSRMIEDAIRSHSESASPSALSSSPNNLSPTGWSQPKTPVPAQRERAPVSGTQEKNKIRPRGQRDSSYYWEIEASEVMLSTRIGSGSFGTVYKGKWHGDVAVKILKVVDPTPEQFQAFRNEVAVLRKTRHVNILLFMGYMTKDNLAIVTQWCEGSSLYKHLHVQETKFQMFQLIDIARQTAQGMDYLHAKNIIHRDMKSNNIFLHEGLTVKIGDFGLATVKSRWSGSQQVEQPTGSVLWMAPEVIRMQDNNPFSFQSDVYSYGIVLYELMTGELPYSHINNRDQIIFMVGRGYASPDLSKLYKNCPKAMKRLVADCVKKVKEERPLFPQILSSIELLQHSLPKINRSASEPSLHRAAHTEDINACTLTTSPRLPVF
Sequence of Vascular endothelial growth factor receptor 2 (Homo sapiens) (P35968 whole entry): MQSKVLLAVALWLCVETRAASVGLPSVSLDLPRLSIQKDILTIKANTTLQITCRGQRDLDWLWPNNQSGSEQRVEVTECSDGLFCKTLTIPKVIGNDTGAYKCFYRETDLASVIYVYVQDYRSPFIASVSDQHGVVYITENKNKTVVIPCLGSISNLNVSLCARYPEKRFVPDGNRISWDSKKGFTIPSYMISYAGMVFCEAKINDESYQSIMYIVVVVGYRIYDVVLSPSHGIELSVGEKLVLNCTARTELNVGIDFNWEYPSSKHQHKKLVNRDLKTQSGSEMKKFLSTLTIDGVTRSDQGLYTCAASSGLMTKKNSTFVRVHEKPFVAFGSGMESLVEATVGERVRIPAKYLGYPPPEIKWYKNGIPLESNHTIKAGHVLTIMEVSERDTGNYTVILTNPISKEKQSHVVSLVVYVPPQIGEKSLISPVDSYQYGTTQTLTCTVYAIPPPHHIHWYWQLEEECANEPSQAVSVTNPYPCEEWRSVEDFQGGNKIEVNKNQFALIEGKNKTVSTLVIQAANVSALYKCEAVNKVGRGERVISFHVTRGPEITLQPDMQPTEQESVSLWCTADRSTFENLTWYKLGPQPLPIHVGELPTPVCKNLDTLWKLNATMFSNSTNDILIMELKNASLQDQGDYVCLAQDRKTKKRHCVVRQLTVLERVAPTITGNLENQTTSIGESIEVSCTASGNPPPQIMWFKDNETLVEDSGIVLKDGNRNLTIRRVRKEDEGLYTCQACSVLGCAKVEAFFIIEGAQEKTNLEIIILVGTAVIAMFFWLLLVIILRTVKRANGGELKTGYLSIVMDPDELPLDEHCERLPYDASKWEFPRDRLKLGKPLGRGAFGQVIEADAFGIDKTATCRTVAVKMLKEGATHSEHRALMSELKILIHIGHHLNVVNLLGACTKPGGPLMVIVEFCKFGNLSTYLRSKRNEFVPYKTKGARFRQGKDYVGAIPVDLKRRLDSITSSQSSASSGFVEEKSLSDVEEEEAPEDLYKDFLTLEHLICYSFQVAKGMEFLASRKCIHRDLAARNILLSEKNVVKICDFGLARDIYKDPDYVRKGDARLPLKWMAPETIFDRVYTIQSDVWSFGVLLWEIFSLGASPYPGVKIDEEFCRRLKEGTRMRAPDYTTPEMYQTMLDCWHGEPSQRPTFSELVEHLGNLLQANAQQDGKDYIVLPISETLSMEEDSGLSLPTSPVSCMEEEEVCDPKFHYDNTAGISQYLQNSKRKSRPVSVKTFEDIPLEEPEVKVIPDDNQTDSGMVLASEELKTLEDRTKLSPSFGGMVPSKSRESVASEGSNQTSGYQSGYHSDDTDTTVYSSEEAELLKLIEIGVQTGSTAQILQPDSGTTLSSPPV
Sequence of RAC-alpha serine/threonine-protein kinase (Homo sapiens) (P31749 whole entry): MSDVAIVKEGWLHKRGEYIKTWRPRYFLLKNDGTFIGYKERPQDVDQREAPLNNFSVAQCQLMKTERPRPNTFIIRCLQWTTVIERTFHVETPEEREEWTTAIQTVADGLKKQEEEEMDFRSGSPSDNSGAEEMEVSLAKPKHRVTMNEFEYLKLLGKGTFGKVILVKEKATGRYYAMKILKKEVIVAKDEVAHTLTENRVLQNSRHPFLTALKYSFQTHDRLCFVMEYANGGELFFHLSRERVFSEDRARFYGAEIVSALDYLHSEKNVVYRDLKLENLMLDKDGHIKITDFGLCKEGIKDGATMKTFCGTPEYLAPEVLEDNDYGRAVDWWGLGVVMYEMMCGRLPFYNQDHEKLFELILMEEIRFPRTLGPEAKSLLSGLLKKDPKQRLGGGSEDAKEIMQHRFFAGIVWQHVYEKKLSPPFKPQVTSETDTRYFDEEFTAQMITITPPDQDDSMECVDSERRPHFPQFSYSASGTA
Sequence of Serine/threonine-protein kinase PLK1 (Homo sapiens) (P53350 whole entry): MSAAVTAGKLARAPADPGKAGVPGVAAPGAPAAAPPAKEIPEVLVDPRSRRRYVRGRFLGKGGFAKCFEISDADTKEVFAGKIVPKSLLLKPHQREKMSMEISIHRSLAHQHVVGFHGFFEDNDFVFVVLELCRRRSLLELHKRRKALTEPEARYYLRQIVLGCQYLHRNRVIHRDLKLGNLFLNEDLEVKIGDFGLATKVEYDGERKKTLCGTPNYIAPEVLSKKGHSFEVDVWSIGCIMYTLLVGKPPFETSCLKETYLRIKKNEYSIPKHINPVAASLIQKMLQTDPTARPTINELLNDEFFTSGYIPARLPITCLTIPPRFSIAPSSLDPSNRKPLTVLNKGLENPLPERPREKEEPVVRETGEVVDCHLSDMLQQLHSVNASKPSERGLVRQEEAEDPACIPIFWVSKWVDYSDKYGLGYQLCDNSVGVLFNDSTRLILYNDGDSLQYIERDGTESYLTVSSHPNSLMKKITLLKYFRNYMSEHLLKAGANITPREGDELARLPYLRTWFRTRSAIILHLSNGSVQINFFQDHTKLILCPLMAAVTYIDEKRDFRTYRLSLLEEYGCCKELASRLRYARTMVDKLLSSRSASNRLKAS
Sequence of Glycogen synthase kinase-3 beta (Homo sapiens) (P49841 whole entry, looked up): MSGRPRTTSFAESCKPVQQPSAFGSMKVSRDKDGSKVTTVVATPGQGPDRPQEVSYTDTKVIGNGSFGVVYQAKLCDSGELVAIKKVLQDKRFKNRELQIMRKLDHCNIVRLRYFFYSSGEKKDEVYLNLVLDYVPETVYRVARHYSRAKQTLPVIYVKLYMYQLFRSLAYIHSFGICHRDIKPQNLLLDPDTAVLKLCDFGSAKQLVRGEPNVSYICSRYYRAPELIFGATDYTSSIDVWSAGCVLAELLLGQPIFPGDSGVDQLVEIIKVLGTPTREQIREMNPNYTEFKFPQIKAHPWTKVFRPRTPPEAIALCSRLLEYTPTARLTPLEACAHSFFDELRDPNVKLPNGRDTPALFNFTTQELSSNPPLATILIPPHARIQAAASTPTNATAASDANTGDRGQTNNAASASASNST

inhibition [1]: Active
inhibition [2]: 13%
inhibition [3]: 1.69%
inhibition [4]: Dose-dependent effect
inhibition [5]: Dose-dependent effect
inhibition [6]: 2.58%
inhibition [12]: Active
inhibition [13]: Active
inhibition [16]: 1.77%
inhibition [17]: 5.32%
inhibition [18]: 4.18%
inhibition [19]: 1.86%
inhibition [22]: 65.3%
inhibition [24]: 74.4%
inhibition [32]: 1.42%
inhibition [34]: 3.02%
inhibition [35]: 27.7%
inhibition [36]: 3.37%
inhibition [39]: Dose-dependent effect
inhibition [40]: 6.5%
inhibition [41]: Active
IC50 [45]: 141 nM
inhibition [46]: Active
inhibition [47]: 9.63%
Structure (SMILES): c1ccc(-c2csc3ncnc(N4CCc5ccccc5C4)c23)cc1
IC50 [7]: 20.8 µM
Activity [8]: 13.2%
IC50 [9]: 42.3 µM
IC50 [10]: 15.2 µM
IC50 [11]: 27 µM
Activity [14]: 35.39%
IC50 [15]: > 100 µM
IC50 [20]: > 100 µM
growth inhibition (GI) [21]: Active
growth inhibition (GI) [23]: inactive
Activity [25]: 24.09%
IC50 [26]: 6.25 µM
IC50 [27]: > 100 µM
IC50 [28]: > 100 µM
Activity [29]: 9.34%
Activity [30]: Dose-dependent effect
IC50 [31]: 20.6 µM
IC50 [33]: 23.4 µM
IC50 [37]: 17.4 µM
growth inhibition (GI) [38]: Active
Activity [42]: 33.6%
IC50 [43]: 13.2 µM
IC50 [44]: > 100 µM
IC50 [48]: > 100 µM
